What was measured:
human CB1 receptor = target: T1, human CB1 receptor (Homo sapiens, UniProt P21554); test: In-vitro determination of efficacy and potency at the human CB1 receptor expressed in CHO cells (luciferase reporter assay); type: cell-based; details: CHO cells expressing the human CB1 receptor and a luciferase reporter gene; 5 h at 37 °C
T1 construct: expressed in transfected cells; host or cells: CHO (Chinese Hamster Ovary) cells
Method: Methods to determine receptor binding as well as in vitro biological activity of cannabinoid receptor modulators are well known in the art. In general, expressed receptor is contacted with the compound to be tested and binding or stimulation or inhibition of a functional response is measured. To measure a functional response isolated DNA encoding the CB1 receptor gene, preferably the human receptor, is expressed in suitable host cells. Such a cell might be the Chinese Hamster Ovary cell, but other cells are also suitable. Preferably the cells are of mammalian origin. Methods to construct recombinant CB1 expressing cell lines are well known in the art (Sambrook et al, Molecular Cloning: a Laboratory Manual, Cold Spring Harbor Laboratory Press, Cold Spring Harbor, latest edition). Expression of the receptor is attained by expression of the DNA encoding the desired protein. Techniques for ligation of additional sequences and construction of suitable expression systems are all, by now, well known in the art. Portions or all of the DNA encoding the desired protein can be constructed synthetically using standard solid phase techniques, preferably to include restriction sites for ease of ligation. Suitable control elements for transcription and translation of the included coding sequence can be provided to the DNA coding sequences. As is well known, expression systems are now available which are compatible with a wide variety of hosts, including prokaryotic hosts such as bacteria and eukaryotic hosts such as yeast, plant cells, insect cells, mammalian cells, avian cells and the like. Cells expressing the receptor are then contacted with the test compound to observe binding, or stimulation or inhibition of a functional response. Alternatively isolated cell membranes containing the expressed CB1 (or CB2) receptor may be used to measure binding of compound. For measurement of binding radioactively or fluorescently labelled compounds may be used. The most widely used radiolabelled cannabinoid probe is [^3H]CP55940, which has approximately equal affinity for CB1 and CB2 binding sites. Functional CB1 agonist activity may be measured by determining the second messenger response, such as for example measurement of receptor mediated changes in cAMP or MAPkinase pathways. Thus, such a method involves expression of the CB1 receptor on the cell surface of a host cell and exposing the cell to the test compound. The second messenger response is then measured. The level of second messenger will be reduced or increased, depending on the effect of the test compound upon binding to the receptor.
In-vitro determination of efficacy and potency at the human CB1 receptor expressed in CHO cells
Chinese Hamster Ovary (CHO) cells expressing the human CB1 receptor and a luciferase reporter gene were suspended in phenol red/serum free DMEM/F-12 nut mix containing penicillin/streptomycin (50U/50 µg/ml) and fungizone (1 µg/ml) and seeded into 96 well plates at a density of 3 x 10^4 cells per well (100 µl final volume). Cells were incubated overnight (approx. 18 h at 37°C, 5% CO2/95% air) prior to assay. The test compound (10 mM solution in dimethylsulfoxide) was diluted in F12 Nut Mix to give a range of stock solutions from 0.11 mM to 0.11 nM. The stock solutions (10 µl) were added directly to the relevant wells. The plates were incubated at 37 °C for 5 h to allow agonist-induced expression of the luciferase enzyme. Under subdued light, LucLite substrate (Packard; reconstituted as per manufacturer's instructions; 100 µl) was added to each well. Plates were covered with Top Seal and then incubated at room temperature for 5 minutes before counting on the Packard TopCount (single photon counting, 0.01 minute count time, 5 minute count delay). A "best-fit" curve was fitted by a minimum sum of squares method to the plot of counts per second (CPS) against compound concentration (M) to obtain an EC50 value. […]

Mice = test: Formalin Paw Test in Mice; type: in vivo; details: Mus musculus, iv, administered intravenously 5 minutes before 5% formalin, Phase 2 = between 20 and 30 min after formalin injection, read-out: ED50, inhibition of the nociceptive behaviour of Phase 2
Method: Formalin Paw Test in Mice
Four - six groups of six mice were treated with vehicle and one of four to five doses of the test compound (typically between 0.03, 0.1, 3 and 10 µmol/kg), administered intravenously into the tail vein (vehicle: 10% Tween-80 in saline; injection volume 10 ml/kg). This injection was followed 5 minutes later by 20 µl of 5% formalin, which was administered sub-cutaneously to the dorsum of the left hind paw. Immediately after formalin administration the animal was placed in a test chamber and data acquisition, using a detection device (Automated Nociception Analyser (ANA); Department of Anesthesiology, University of California, San Diego), was started, independently for each chamber. The nociceptive behaviour was measured as the number of counts (licking, lifting, biting and flinching actions) detected within the two phases of nociception (Yaksh et al, 2001). The nociceptive behaviour between 0 and 5 min after formalin injection (Phase 1) and between 20 and 30 min after formalin injection (Phase 2) was recorded and number of counts for each mouse, compared to the mean number of counts for the vehicle treated animals, was calculated. Once values for each mouse were obtained, the mean and s.e.m. were calculated for each treatment group. The percent inhibition data were then used to calculate ED50 values for Phase 1 and Phase 2.

T1 sequence (P21554 whole entry): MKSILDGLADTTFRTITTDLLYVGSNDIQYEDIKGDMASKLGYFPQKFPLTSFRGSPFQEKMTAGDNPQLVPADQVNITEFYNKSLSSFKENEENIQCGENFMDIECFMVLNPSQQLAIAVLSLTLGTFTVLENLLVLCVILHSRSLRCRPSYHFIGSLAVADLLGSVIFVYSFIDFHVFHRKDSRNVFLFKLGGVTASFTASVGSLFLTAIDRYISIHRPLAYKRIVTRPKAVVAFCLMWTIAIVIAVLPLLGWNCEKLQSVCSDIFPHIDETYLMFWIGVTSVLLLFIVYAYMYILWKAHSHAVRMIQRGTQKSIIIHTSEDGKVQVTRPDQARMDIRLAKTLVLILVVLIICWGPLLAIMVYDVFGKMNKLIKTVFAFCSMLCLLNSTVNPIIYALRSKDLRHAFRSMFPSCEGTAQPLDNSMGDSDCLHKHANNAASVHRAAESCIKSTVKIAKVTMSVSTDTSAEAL

Compound	pEC50 (human CB1 receptor)	EC50 (human CB1 receptor) [nM]	ED50 (Mice) [µmol/kg]
7-Ethyl-3-[(5-{N-[4-(carboxamido)methyl]piperidin-1-yl}methyl)-([1,2,4]-thiadiazol-3-yl)]-1-(tetrahydropyran-4-yl)methyl-1H-indole [Example 12]	6.9	–	–
COCCN(Cc1nc(-c2cn(CC3CCOCC3)c3c(Cl)cccc23)ns1)S(C)(=O)=O [Example 7, 7-Chloro-3-({5-[(N-{2-methoxy}ethyl)-(N-{methylsulfonyl})amino]methyl}-([1,2,4]-thiadiazol-3-yl))-1-(tetrahydropyran-4-yl)methyl-1H-indole]	–	79.4	–
CCc1cccc2c(-c3nsc(CN(C)CC(N)=O)n3)cn(CC3CCOCC3)c12 [Example 9, 7-Ethyl-3-[(5-{[N-(carboxamido)methyl]-N-methylamino}methyl)-([1,2,4]-thiadiazol-3-yl)]-1-(tetrahydropyran-4-yl)methyl-1H-indole]	–	126	–
CCc1cccc2c(-c3nsc(CN4CCC(C(=O)NCCO)CC4)n3)cn(CC3CCOCC3)c12 [Example 10A, 7-Ethyl-3-[(5-{4-[(N-{2-hydroxy}ethyl)carboxamido]piperidin-1-yl}methyl)-([1,2,4]-thiadiazol-3-yl)]-1-(tetrahydropyran-4-yl)methyl-1H-indole]	–	12.6	< 5
O=C(NCCO)[C@H]1CCCN(Cc2nc(-c3cn(CC4CCS(=O)(=O)CC4)c4c(Cl)cccc34)ns2)C1 [Example 13, (S)-7-Chloro-3-[(5-{[3-N-(2-hydroxyethyl)carboxamido]piperidin-1-yl}methyl)-([1,2,4]-thiadiazol-3-yl)]-1-(1,1-dioxo-hexahydrothiopyran-4-yl)methyl-1H-indole]	6.9	–	–
CS(=O)(=O)N(CCO)Cc1nc(-c2cn(CC3CCOCC3)c3c(Cl)cccc23)ns1 [Example 15, 7-Chloro-3-({5-[(N-{2-hydroxy}ethyl)-(N-{methylsulfonyl})amino]methyl}-([1,2,4]-thiadiazol-3-yl))-1-(tetrahydropyran-4-yl)methyl-1H-indole]	–	20	< 5
OCC1CCN(Cc2nnc(-c3cn(CC4CCCCC4)c4c(Cl)cccc34)o2)CC1 [Example 17, 7-Chloro-3-[(5-{4-[hydroxymethyl]piperidin-1-yl}methyl)-([1,3,4]-oxadiazol-2-yl)]-1-(cyclohexyl)methyl-1H-indole]	–	126	–
CS(=O)(=O)N1CCC[C@H]1c1nnc(-c2cn(CC3CCOCC3)c3c(Cl)cccc23)o1 [Example 18, (S)-7-Chloro-3-[(5-{N-methylsulfonyl}pyrrolidin-2-yl)-([1,3,4]-oxadiazol-2-yl)]-1-(tetrahydropyran-4-yl)methyl-1H-indole]	7.2	–	–
O=C(NCCO)C1CCN(Cc2nc(-c3cn(CC4CCOCC4)c4c(Cl)cccc34)no2)CC1 [Example 19, 7-Chloro-3-[(5-{4-[(N-{2-hydroxy}ethyl)carboxamido]piperidin-1-yl}methyl)-([1,2,4]oxadiazol-3-yl)]-1-(tetrahydropyran-4-yl)methyl-1H-indole]	–	79.4	< 5
CN(CC(N)=O)Cc1nc(-c2cn(CC3CCOCC3)c3c(Cl)cccc23)no1 [Example 20, 7-Chloro-3-[(5-{[N-(carboxamido)methyl]-N-methylamino}methyl)-([1,2,4]oxadiazol-3-yl)]-1-(tetrahydropyran-4-yl)methyl-1H-indole]	–	39.8	< 5
CN(CC(=O)NCC(N)=O)Cc1nc(-c2cn(CC3CCOCC3)c3c(Cl)cccc23)no1 [Example 20A]	–	31.6	–
CN(CC(=O)NCCO)Cc1nc(-c2cn(CC3CCOCC3)c3c(Cl)cccc23)no1 [Example 20B, 7-Chloro-3-({5-[(N-{[N-(2-hydroxyethyl)]carboxamido}methyl)-N-methylamino]methyl}-[1,2,4]oxadiazol-3-yl)-1-(tetrahydropyran-4-yl)methyl-1H-indole]	–	50.1	–
COCC(=O)NCc1nc(-c2cn(CC3CCOCC3)c3c(Cl)cccc23)no1 [Example 24, 7-Chloro-3-[(5-{[N-methoxymethylformyl]amino}methyl)-([1,2,4]-oxadiazol-3-yl)]-1-(tetrahydropyran-4-yl)methyl-1H-indole]	–	200	–
CN(C)S(=O)(=O)N(CCO)Cc1nc(-c2cn(CC3CCOCC3)c3c(Cl)cccc23)no1 [Example 25, 7-Chloro-3-[(5-{N-(N',N'-dimethylsulfonamido)}-(N-{2-hydroxy}ethylamino)methyl)-([1,2,4]-oxadiazol-3-yl)]-1-(tetrahydropyran-4-yl)methyl-1H-indole]	–	100	–

— patent EP1919471B1, “(INDOL-3-YL)-HETEROCYCLE DERIVATIVES AS AGONISTS OF THE CANNABINOID CB1 RECEPTOR” (Merck Sharp & Dohme B.V., priority 2005, dated 2007)
